Holding throughout (type): biochemical
Assay [1] deals with T1, Recombinant human calpain I (Homo sapiens, UniProt P07384).
T1 construct: made in house
T1 sequence (P07384 1-714): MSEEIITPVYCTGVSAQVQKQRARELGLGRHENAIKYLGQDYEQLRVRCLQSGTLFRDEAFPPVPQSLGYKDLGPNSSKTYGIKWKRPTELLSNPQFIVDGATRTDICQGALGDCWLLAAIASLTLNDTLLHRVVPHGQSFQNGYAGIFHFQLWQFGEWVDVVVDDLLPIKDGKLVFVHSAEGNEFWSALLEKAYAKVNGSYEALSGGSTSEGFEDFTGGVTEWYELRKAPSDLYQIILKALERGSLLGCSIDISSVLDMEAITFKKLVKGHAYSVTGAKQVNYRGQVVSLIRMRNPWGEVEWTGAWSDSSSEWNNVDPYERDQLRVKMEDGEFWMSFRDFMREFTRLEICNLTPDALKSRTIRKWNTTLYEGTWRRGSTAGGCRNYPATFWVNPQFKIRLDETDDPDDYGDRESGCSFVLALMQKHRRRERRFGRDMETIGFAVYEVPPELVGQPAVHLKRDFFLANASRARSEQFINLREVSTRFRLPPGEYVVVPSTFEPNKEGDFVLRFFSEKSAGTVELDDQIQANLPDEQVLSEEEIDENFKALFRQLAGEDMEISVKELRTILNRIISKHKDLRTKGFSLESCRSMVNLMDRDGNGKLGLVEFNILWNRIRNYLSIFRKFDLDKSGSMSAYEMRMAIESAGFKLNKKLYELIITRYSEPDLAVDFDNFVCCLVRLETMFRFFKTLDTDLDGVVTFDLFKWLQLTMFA
Kind of assay: Inhibition of calpain I activity. The conditions noted are these: Table III. How it is done: To evaluate inhibitory activity, stock solutions (40 times concentrated) of exemplary compounds of the invention were prepared in 100% anhydrous DMSO and 5 μL of each inhibitor preparation were aliquoted into each of three wells of a 96-well plate. Recombinant human calpain I, prepared by the method of Meyer et al. (Biochem. […] To start the reaction, 20 μL of 50 mM CaCl2 in assay buffer was added to all wells of the plate, excepting three, which were used as background signal baseline controls. Substrate hydrolysis was monitored every 5 minutes for a total of 30 minutes. […] Inhibition of calpain I activity was calculated as the percent decrease in the rate of substrate hydrolysis in the presence of inhibitor (VI) relative to the rate in its absence (VO). Comparison between VO and VI was made within the linear range for substrate hydrolysis. For screening, compounds were tested at 10, 1.0, and 0.1 μM. […] The results were plotted as % inhibition versus log inhibitor concentration and the IC50 was calculated from linear regression of the data. Apparent second order rate constants were determined from analysis of reaction progress curves under pseudo-first order conditions. Each determination represents the means of three or more independent single cuvette analyses continually monitored via a Perkin-Elmer LS50B spectrofluorimeter. The rate of inhibition of hydrolysis was obtained by fitting the curve to the exponential equation (1): […]

The target of another assay is T2, thrombin (Homo sapiens, UniProt P00734).
T2 construct: purchased Sigma Chem. Co. T-7009
As to the kind of experiment: Inhibition of thrombin. The conditions noted are these: Table III; 10 uM; read-out: Thrombin % I @ 10 uM.

In a further assay the target is T3, cathepsin B (Homo sapiens, UniProt P07858).
T3 construct: purchased Calbiochem 219364
As to the kind of experiment: Inhibition of cathepsin B. The conditions noted are these: Table III; for inhibition at 1 µM: read-out: Cat B % I @ 1 uM; for IC50: read-out: Cat B IC50. As to the method:
(§1) Additionally,the order of reagents added to the plate was altered because both enzymes are constitutively active. Following inhibitor addition to the plates, appropriate 2× concentrated stock dilutions of the enzyme preparations were made in assay buffer and 100 μl added to each well. The assay was initiated by addition of 100 μl of 2× concentrated stock dilution of substrate in assay buffer.

In the next assay the target is T4, cathepsin L (Homo sapiens, UniProt P07711).
T4 construct: purchased Calbiochem 219402
Kind of assay: Inhibition of cathepsin L. As to conditions: Table III; 1 uM; read-out: Cat L % I @ 1 uM. How it is done: as §1

The next assay deals with T5, α-chymotrypsin (Bos taurus, UniProt P00766).
T5 construct: purchased Sigma Chem. Co. C-3142
As to the kind of experiment: Inhibition of α-chymotrypsin. The conditions noted are these: read-out: Chymotrypsin % I @ 10 uM. How it is done: Additionally, because α-chymotrypsin is not a calcium sensitive enzyme and is constitutively active, following addition of inhibitor stocks to the 96 well plates, 100 μl of a 2-fold concentrated stock of enzyme in dilution buffer was first added and the reaction started by addition of 100 μl of a 2-fold concentrated stock of substrate in assay buffer. Substrate hydrolysis was monitored every 5 minutes up to 30 minutes using a Fluoroskan II ([…]).

Where two headings read alike, the source gives them in different places. Square brackets hold non-standard residues; d marks the D form. Peptide text beside a SMILES is read from it. * marks the point of attachment. d(hPhe) = N[C@H](CCc1ccccc1)C(=O)O; Tos = Cc1ccc(S(=O)(=O)*)cc1; Ms = CS(=O)(=O)*

T4 sequence (P07711 114-288 limits assumed): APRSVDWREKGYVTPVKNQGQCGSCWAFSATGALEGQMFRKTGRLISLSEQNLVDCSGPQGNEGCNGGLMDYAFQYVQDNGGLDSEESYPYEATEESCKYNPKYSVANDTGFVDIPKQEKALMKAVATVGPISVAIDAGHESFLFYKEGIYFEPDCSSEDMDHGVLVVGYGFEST
T4 sequence (P07711 292-333 limits assumed): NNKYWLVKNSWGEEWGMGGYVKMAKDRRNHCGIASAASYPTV

As to `Cc1ccc(S(=O)(=O)N[C@H](COCc2ccccc2)C(=O)N[C@H](C=O)Cc2ccccc2)cc1` [Compound 49], in assay [1], the IC50 (in general, the point on the concentration scale where inhibition reaches its midpoint) turned out to be 27 nM. In assay [1], the inhibition at 0.1 µM was found to be 75%. Further, the inhibition at 10 µM on thrombin was found to be 4%; at α-chymotrypsin (Table III, 10 uM), 1%. In addition, the inhibition at 1 µM at cathepsin B amounted to 99%; on cathepsin L it was 100%.

Consider `CCS(=O)(=O)N[C@H](COCc1ccccc1)C(=O)N[C@H](C=O)Cc1ccccc1` [Compound 50], for which the IC50 in assay [1] came out at 12 nM. The inhibition at 0.1 µM in assay [1] was determined as 95%. Also, the inhibition at 10 µM on thrombin was 9%; at α-chymotrypsin it was 15%. Moreover, the inhibition at 1 µM came out at 99% at cathepsin B and 98% at cathepsin L.

Take `CC(=O)Nc1ccc(S(=O)(=O)N[C@H](COCc2ccccc2)C(=O)N[C@H](C=O)Cc2ccccc2)cc1` [Compound 51]: the IC50 in assay [1] was 32 nM; on cathepsin B, 14 nM. The inhibition at 0.1 µM in assay [1] was 92%. In addition, the inhibition at 10 µM turned out to be 21% at thrombin and 3% on α-chymotrypsin (Table III, 10 uM). For the same molecule, the inhibition at 1 µM on cathepsin B and on cathepsin L was 100% in each case.

Take `O=C[C@H](Cc1ccccc1)NC(=O)[C@@H](COCc1ccccc1)NS(=O)(=O)c1ccc2ccccc2c1` [Compound 52]: the IC50 in assay [1] came out at 28 nM; at cathepsin B it was 4 nM. In addition, the inhibition at 0.1 µM in assay [1] stood at 93%. Moreover, the inhibition at 10 µM on thrombin was determined as 10%; on α-chymotrypsin (Table III, 10 uM) it was 0%. Moreover, the inhibition at 1 µM on cathepsin B and at cathepsin L was 100% throughout.

Take `O=C[C@H](Cc1ccccc1)NC(=O)[C@@H](COCc1ccccc1)NS(=O)(=O)N1CCOCC1` [Compound 53]: in assay [1], the IC50 turned out to be 72 nM. For the same molecule, the inhibition at 0.1 µM in assay [1] is 25%. The inhibition at 10 µM amounted to 0% at thrombin and 0% at α-chymotrypsin (Table III, 10 uM). Further, the inhibition at 1 µM on cathepsin B was found to be 98%; at cathepsin L, 100%.

For `O=C[C@H](Cc1ccccc1)NC(=O)[C@@H](COCc1ccccc1)NS(=O)(=O)c1cccs1` [Compound 54], the IC50 in assay [1] was found to be 13 nM. The inhibition at 0.1 µM in assay [1] was 95%. The inhibition at 10 µM was 4% on thrombin and 3% at α-chymotrypsin (Table III, 10 uM). Besides, the inhibition at 1 µM at cathepsin B and at cathepsin L was 100% in each case.

For `Cc1noc(C)c1S(=O)(=O)N[C@H](COCc1ccccc1)C(=O)N[C@H](C=O)Cc1ccccc1` [Compound 55], the half-maximal inhibitory concentration (IC50) in assay [1] amounted to 25 nM. Further, the inhibition at 0.1 µM in assay [1] stood at 87%. The inhibition at 10 µM at thrombin is 2%; at α-chymotrypsin (Table III, 10 uM), 12%. Besides, the inhibition at 1 µM was found to be 90% on cathepsin B and 100% on cathepsin L.

For the molecule `O=C[C@H](Cc1ccccc1)NC(=O)[C@@H](Cc1ccccc1)NS(=O)(=O)c1ccccc1` [Compound 59], the half-inhibitory concentration (IC50) was 20 nM in assay [1] and 5 nM on cathepsin B. In addition, in assay [1], the inhibition at 0.1 µM stood at 86%. For the same molecule, the inhibition at 10 µM stood at 0% at thrombin and 4% at α-chymotrypsin (Table III, 10 uM). Moreover, the inhibition at 1 µM at cathepsin B and on cathepsin L was 100% throughout.

As to `CCS(=O)(=O)N[C@H](Cc1ccccc1)C(=O)N[C@H](C=O)Cc1ccccc1` [Compound 60], the IC50 in assay [1] was determined as 33 nM. In addition, the inhibition at 0.1 µM in assay [1] turned out to be 74%. Also, the inhibition at 10 µM at thrombin stood at 0%; on α-chymotrypsin (Table III, 10 uM) it was 0%. The inhibition at 1 µM on cathepsin B turned out to be 97%; at cathepsin L it was 100%.

Turning to `Cc1ccc(S(=O)(=O)N[C@H](Cc2ccccc2)C(=O)N[C@H](C=O)Cc2ccccc2)cc1` [Compound 61] (Tos-[dF]-Phe-aldehyde), the half-inhibitory concentration (IC50) in assay [1] worked out at 22 nM. Besides, the inhibition at 0.1 µM in assay [1] turned out to be 83%. The inhibition at 10 µM at thrombin worked out at 0%; on α-chymotrypsin (Table III, 10 uM), 0%. Also, the inhibition at 1 µM on cathepsin B and on cathepsin L was 100% in each case.

As for `CS(=O)(=O)N[C@H](CCc1ccccc1)C(=O)N[C@H](C=O)Cc1ccccc1` [Compound 62] (Ms-[d(hPhe)]-Phe-aldehyde), the IC50 in assay [1] was 39 nM. Further, the inhibition at 0.1 µM in assay [1] came out at 71%. In addition, the inhibition at 10 µM came to 0% at thrombin and 4% at α-chymotrypsin (Table III, 10 uM). The inhibition at 1 µM turned out to be 85% at cathepsin B and 89% at cathepsin L.

With `O=C[C@H](Cc1ccccc1)NC(=O)[C@@H](COCc1ccccc1)NC(=O)OCc1ccccc1` [Compound 64], the inhibition at 0.1 µM in assay [1] worked out at 68%. For the same molecule, the inhibition at 10 µM at thrombin is 0%; at α-chymotrypsin (Table III, 10 uM), 10%. The inhibition at 1 µM was 87% at cathepsin B and 100% at cathepsin L.

For `CS(=O)(=O)N[C@H](Cc1ccccc1)C(=O)N[C@H](C=O)Cc1ccccc1` [Compound 70] (Ms-[dF]-Phe-aldehyde), the IC50 in assay [1] was determined as 16 nM. Besides, in assay [1], the inhibition at 0.1 µM came to 85%. Besides, the inhibition at 10 µM came out at 0% at thrombin and 12% on α-chymotrypsin (Table III, 10 uM). Moreover, the inhibition at 1 µM on cathepsin B was found to be 90%; on cathepsin L, 100%.

Take `O=C[C@H](Cc1ccccc1)NC(=O)[C@@H](Cc1c[nH]c2ccccc12)NS(=O)(=O)c1ccccc1` [Compound 71]: the IC50 in assay [1] turned out to be 31 nM. Also, in assay [1], the inhibition at 0.1 µM worked out at 92%. In addition, the inhibition at 10 µM on thrombin is 11%; at α-chymotrypsin (Table III, 10 uM) it was 5%. Also, the inhibition at 1 µM at cathepsin B and on cathepsin L was 100% throughout.

Take `O=C[C@H](Cc1ccccc1)NC(=O)[C@@H](Cc1ccccc1)NS(=O)(=O)c1ccc2ccccc2c1` [Compound 72]: the IC50 in assay [1] amounted to 14 nM. For the same molecule, the inhibition at 0.1 µM in assay [1] turned out to be 91%. Also, the inhibition at 10 µM on thrombin came out at 13%; at α-chymotrypsin (Table III, 10 uM) it was 7%. Besides, the inhibition at 1 µM on cathepsin B and on cathepsin L was 100% throughout.

On to `O=C[C@H](Cc1ccccc1)NC(=O)[C@@H](Cc1c[nH]c2ccccc12)NS(=O)(=O)c1cccs1` [Compound 73], for which, in assay [1], the IC50 came to 14 nM. Further, the inhibition at 0.1 µM in assay [1] came to 95%. Moreover, the inhibition at 10 µM amounted to 12% on thrombin and 16% on α-chymotrypsin (Table III, 10 uM). Further, the inhibition at 1 µM at cathepsin B and on cathepsin L was 100% throughout.

As for `O=C[C@H](Cc1ccccc1)NC(=O)[C@@H](Cc1ccccc1)NS(=O)(=O)c1cccc2cccnc12` [Compound 74], in assay [1], the IC50 stood at 33 nM. Also, the inhibition at 0.1 µM in assay [1] turned out to be 83%. Further, the inhibition at 10 µM at thrombin was found to be 6%; at α-chymotrypsin (Table III, 10 uM), 13%. The inhibition at 1 µM on cathepsin B and on cathepsin L was 100% throughout.

As for `O=C[C@H](Cc1ccccc1)NC(=O)[C@@H](Cc1ccccc1)NS(=O)(=O)c1cccs1` [Compound 75], the IC50 in assay [1] was 20 nM. The inhibition at 0.1 µM in assay [1] stood at 91%. The inhibition at 10 µM worked out at 10% on thrombin and 2% on α-chymotrypsin (Table III, 10 uM). In addition, the figures for the inhibition at 1 µM at cathepsin B and on cathepsin L were 100% and 99%, respectively.
